Source: patent publication US5888971A, “Macrocyclic peptides useful in the treatment of thrombin related disorders” (Ortho Pharmaceutical Corporation, Inc., priority 1996, dated 1999)

How the values were obtained:
Bovine type 1 trypsin = target: T1, Bovine type 1 trypsin (Bos taurus, UniProt P00760); test: Trypsin-catalyzed hydrolysis of chromogenic substrate, Ki; format: biochemical; details: 3.2 U/ml trypsin, 0.1-0.3 mM Spectrozyme TRY; read-out: Trp Ki
T1 construct: purchased Sigma
T1 sequence (P00760 24-246): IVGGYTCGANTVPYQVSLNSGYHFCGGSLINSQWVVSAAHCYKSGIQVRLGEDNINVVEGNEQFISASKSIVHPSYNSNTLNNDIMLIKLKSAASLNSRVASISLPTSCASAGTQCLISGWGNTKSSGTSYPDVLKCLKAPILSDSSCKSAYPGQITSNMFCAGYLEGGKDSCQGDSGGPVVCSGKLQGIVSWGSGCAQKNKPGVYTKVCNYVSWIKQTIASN
Description: (§1) The compounds of the invention were tested for their ability to inhibit thrombin mediated hydrolysis.
Trypsin-catalyzed hydrolysis rates were measured using the same method as the thrombin procedure.

human alpha-thrombin [1] = target: T2, human alpha-thrombin (Homo sapiens, UniProt P00734); test: Thrombin-catalyzed hydrolysis of chromogenic substrate, Michaelis-Menten Ki; format: biochemical; details: 1 nM thrombin, 5-100 μM Spectozyme TH, 37° C., pH 7.4, Michaelis-Menten kinetics; for Ki: read-out: Thr Ki
T2 construct: commercial human alpha-thrombin (American Diagnostica); purchased American Diagnostica
Description: as §1
Changes in absorbance at 405 nm were monitored (Softmax, Molecular Devices), upon addition of enzyme, both with and without inhibitor present at 37° C. over 30 minutes. […] Michaelis-Menton kinetics were applied to the initial reaction slopes using the program K Cat (Bio Metallics Inc.).

human alpha-thrombin [2] = target: T2, human alpha-thrombin; test: Slow, tight-binding kinetics with thrombin (Ki-slow); format: biochemical; details: 0.1 nM thrombin, 50 μM Spectozyme TH, 25° C., 4 h; read-out: Thr Ki -slow
Description: Ki-slow was determined by measuring enzyme-catalyzed hydrolysis rates. […] The compound numbers in the table correspond to the examples described hereinafter.

thrombin = thrombin (Homo sapiens, UniProt P00734); details: background section; cited from earlier work

Compound | Ki (Bovine type 1 trypsin) [nM] | Ki (human alpha-thrombin [1]) [nM] | Ki (human alpha-thrombin [2]) [nM] | Ki (thrombin) [nM] | selectivity for thrombin over trypsin (thrombin) | Thr Ki (human alpha-thrombin [1])
5R,14R,18S,20aS-N-[3-(5-BENZYL-14-METHYI-4,7,13,16,17,20-HEXAOXOEICOSAHYDRO-3a,6,12,15,19-PENTAAZACYCLOPENTA-CYCLONONADECEN-18-YL)PROPYL]GUANIDINE TRIFLUOROACETIC ACID [Compound 21] | 22 ± 14 | 92 ± 46 | 4.71 ± 1.51 | – | – | –
N=C(N)NCCCC1NC(=O)CCCCCNC(=O)C(Cc2ccccc2)NC(=O)C1=O (centres unmarked) [Compound 18, N-[3-(3-BENZYL-2,5,6,9-TETRAOXO-1,4,8-TRIAZACYCLOTETRADEC-7-YL)PROPYL]GUANIDINE TRIFLUOROACETIC ACID] | 310 ± 10 | 3800 ± 200 | – | – | – | –
5R,15R,19S,21 AS-N-[3-(15-BENZHYDRYL-5-BENZYL-4,7,14,17,18,21-HEXAOXODOCOSAHYDRO-3a,6,13,16,20-PENTMZACYCLOPENTACYCLOEICOSEN-19-YL)PPROPYL]GUANIDINE TRIFLUOROACETIC ACID [Compound 19] | 2.5 ± 0.75 | 5.3 ± 2.6 | – | – | – | –
6R, 19S, 22S-N-[3-(6-BENZYL-5, 8, 17, 18, 21-PENTAOXODOCOSAHYDRO-4a, 7, 16, 20-TETRAAZABENCBZOCYCLONONADECEN-19-YL) PROPYL] GUANIDINE TRIFLUOROACETIC ACID HYDRATE [Compound 5] | 85 ± 29 | 90 ± 8.6 | – | – | – | –
CN[C@H](Cc1ccccc1)C(=O)N1CCC[C@H]1C(=O)N[C@H](C=O)CCCN=C(N)N [N-Me-PPAC, N-Me PPACK aldehyde, reference compound] | – | 10 | – | – | – | –
3S,6S,12R-N-[3-(12-BENZYL-2,5,11,14,20-PENTAOXO-23-THIA-4,10,13,19,24-PENTAAZATRICYCLO[19.2.1.3]-6,10-TETRACOSA-1(2H), 21-DIEN-3-YL)PROPYL]GUANIDINE [Compound 23] | 66 ± 26 | 1000 ± 400 | – | – | – | –
N=C(N)NCCC[C@@H]1NC(=O)[C@@H]2CCCN2C(=O)[C@@H](NC=O)CNC(=O)/C=C/[C@H](Cc2ccc(O)cc2)NC(=O)[C@@H](Cc2ccccc2)NC(=O)C1=O [CtA, Cyclotheonamide A, reference compound] | 23000 | 170 ± 80 | 4 ± 1.9 | 1 to 2 | does not favor thrombin | –
[20aR-(20aR, 5R, 18S)]-N-[3-(5-PHENYLETHYL-17-HYDROXY-4, 7, 16, 20-TETRAOXOEICOSAHYDRO-3a, 6, 15, 19-TETRA-AZACYCLONONADECANE-18-YL) PROPYIL] GUANIDINE [Compound 22] | – | – | – | – | – | no activity at 50 μM
5R, 2S, 18S-N-[3-(5-NAPTHALEN-2-YLMETHYL-4, 17, 16, 17, 20-PENTAOXOEICOSAHYDRO-3a, 6, 15, 19-TETRAAZACYCLOPENTACYCLONONADECEN-18-YL)PROPYL] GUANIDINE TRIFLUOROACETATE HYDRATE [Compound 6] | 6.8 ± 5 | 21 ± 5 | – | – | – | –
